The values below are quoted from earlier work in patent publication US20230082651A1, “STABLE AQUEOUS COMPOSITIONS OF PLANTS EXTRACTS AND METHODS OF MAKING THE SAME” (Nulixir Inc., priority 2021, published 2023).

The conditions of one data set: as a function of water content.
On to `COc1ccc2cc3[n+](cc2c1OC)CCc1cc2c(cc1-3)OCO2` [berberine], for which the solubility in ethanol result is on record as “decreases rapidly with water content”.

For a further data set the following is noted: water and n-octanol; categorization at pH=7 unless stated otherwise.
One may read the log P as a log measure of how a compound divides between an organic and an aqueous phase. For the compound `CC(C)=C[C@@H]1CO[C@]23C[C@]4(CO2)[C@H](CC[C@@H]2[C@@]5(C)CC[C@H](O[C@@H]6OC[C@H](O)[C@H](O[C@@H]7O[C@H](CO)[C@@H](O)[C@H](O)[C@H]7O)[C@H]6O[C@@H]6O[C@@H](CO)[C@H](O)[C@H]6O)C(C)(C)[C@@H]5CC[C@]24C)[C@H]3[C@@]1(C)O` [bacopasaponin C], the “log P” value is given as approximately 2. Regarding `COC1=CC(=O)O[C@@H](CCc2ccc3c(c2)OCO3)C1` [7,8-dihydromethysticin], the log partition coefficient (log P) is reported as approximately 2.2. `COc1cc2c(c(OC)c1OC)-c1c(cc(OC)c(OC)c1OC)C[C@](C)(O)[C@@H](C)C2` [(+)-schisandrin]: the “log P” value is reported as approximately 5. As for (R)-kawain, the “log P” value is listed as approximately 2.7. Regarding `N#C[C@@]1(O[C@@H]2O[C@H](CO)[C@@H](O)[C@H](O)[C@H]2O)C=C[C@@H](O)C1` [tetraphyllin B], the log partition coefficient (log P) is approximately −2.5.

On to `CC(=O)OC1C=CC(=O)N(C(=O)CCc2ccccc2)C1` (stereo not drawn) [pipermethystine], for which the “log P” value is on record as approximately 1.8. For the compound `COc1ccc([C@@]23C=CC(=O)C[C@@H]2N(C)CC3)cc1OC` [mesembrenone], the “log P” value is approximately 1.3. `COc1c2c(cc3c1-c1c(cc4c(c1OC)OCO4)C[C@H](C)[C@H](C)C3)OCO2` [(−)-schisandrin C]: the lipophilicity (log P) is recorded as approximately 3.5. As to `COc1ccc([C@@]23CCC(=O)C[C@@H]2N(C)CC3)cc1OC` [mesembrine], the “log P” value was approximately 1.5. Consider `COc1nc2c(c(=O)n1C)n(C)c(=O)n2C` [methylliberine], for which the “log P” value is approximately −0.083. As for `COC1=CC(=O)OC(/C=C/c2ccc(OC)cc2)C1` (stereo not drawn) [5,6-dihydroyangonin], the “log P” value is approximately 2.5. Take `COc1ccc(CCc2cc(OC)cc(=O)o2)cc1` [7,8-dihydroyangonin]: the “log P” value is approximately 2.9. Regarding `COc1cc2c(c(OC)c1OC)-c1c(cc(OC)c(OC)c1OC)C[C@H](C)[C@H](C)C2` [(−)-schisandrin A], the “log P” value was approximately 3.6. Take herinacine A: the “log P” value was approximately 2.5. Turning to `COc1cc([C@H]2Oc3cc(O)c4c(=O)c(O)c(-c5ccc(O)cc5)oc4c3O[C@@H]2CO)ccc1O` [rhodiolin], the “log P” value was approximately 2.

As to `COc1cc(/C=C\c2ccc(OC)c(O)c2)oc(=O)c1` [11-hydroxyyangonin], the “log P” value was approximately 2.2. With bacopaside B, the “log P” value was approximately 2.8. For the compound hericerin, the “log P” value is approximately 6.4. Take `CC(C)=C[C@H]1C[C@](C)(O)[C@@H]2[C@H]3CC[C@@H]4[C@@]5(C)CC[C@H](O[C@@H]6OC[C@H](O)[C@H](O[C@@H]7O[C@H](CO)[C@@H](O)[C@H](O)[C@H]7O)[C@H]6O[C@@H]6O[C@@H](CO)[C@H](O)[C@H]6O)C(C)(C)[C@@H]5CC[C@@]4(C)[C@@]34CO[C@@]2(C4)O1` [bacopaside X]: the lipophilicity (log P) is approximately 2.2. For `CC1=C(CO)C(=O)O[C@@H]([C@@H](C)[C@H]2CC[C@H]3[C@@H]4C[C@H](Cl)[C@]5(O)[C@@H](O)C=CC(=O)[C@]5(C)[C@H]4CC[C@]23C)C1` [6a-chloro-5b-hydroxywithaferin A], the “log P” value is on record as approximately 3.2. Turning to `CC(C)=CCC[C@](C)(O[C@@H]1O[C@H](CO[C@@H]2O[C@H](CO)[C@@H](O)[C@H](O)[C@H]2O)[C@@H](O)[C@H](O)[C@H]1O)[C@H]1CC[C@]2(C)[C@@H]1[C@H](O)C[C@@H]1[C@@]3(C)CC[C@H](O[C@@H]4O[C@H](CO)[C@@H](O)[C@H](O)[C@H]4O[C@@H]4O[C@H](CO)[C@@H](O)[C@H](O)[C@H]4O)C(C)(C)[C@@H]3CC[C@]12C` [ginsenoside rb1], the “log P” value was approximately −1.

For tortuosomine, the “log P” value is approximately 3. Regarding `CC(C)=C[C@H]1C[C@](C)(O)[C@H]2[C@H]3CC[C@@H]4[C@@]5(C)CC[C@H](O[C@@H]6O[C@H](CO)[C@@H](O)[C@H](O[C@@H]7O[C@H](CO)[C@@H](O)[C@H](O)[C@H]7O)[C@H]6O[C@@H]6O[C@@H](CO)[C@H](O)[C@H]6O)C(C)(C)[C@@H]5CC[C@@]4(C)[C@@]34CO[C@@]2(C4)O1` [bacoside A3], the “log P” value was approximately 2.1. Take schisandroside C: the “log P” value is on record as approximately 1.6. Regarding `CC(C)=CCC[C@](C)(O[C@@H]1O[C@H](CO)[C@@H](O)[C@H](O)[C@H]1O)[C@H]1CC[C@]2(C)[C@@H]1[C@H](O)C[C@@H]1[C@@]3(C)CC[C@H](O)C(C)(C)[C@@H]3[C@@H](O[C@@H]3O[C@H](CO)[C@@H](O)[C@H](O)[C@H]3O)C[C@]12C` [ginsenoside rgl], the “log P” value is approximately 0.8.

With `COc1ccc(C23C=CC(O)CC2N(C)CC3)cc1OC` (stereo not drawn) [mesembrenol], the “log P” value is approximately 2.4.
